pIC50: −log10 of the molar value.

Sequence of RIPK1 recombination protein (Q13546 other isoform, or with tags, fused parts or gaps): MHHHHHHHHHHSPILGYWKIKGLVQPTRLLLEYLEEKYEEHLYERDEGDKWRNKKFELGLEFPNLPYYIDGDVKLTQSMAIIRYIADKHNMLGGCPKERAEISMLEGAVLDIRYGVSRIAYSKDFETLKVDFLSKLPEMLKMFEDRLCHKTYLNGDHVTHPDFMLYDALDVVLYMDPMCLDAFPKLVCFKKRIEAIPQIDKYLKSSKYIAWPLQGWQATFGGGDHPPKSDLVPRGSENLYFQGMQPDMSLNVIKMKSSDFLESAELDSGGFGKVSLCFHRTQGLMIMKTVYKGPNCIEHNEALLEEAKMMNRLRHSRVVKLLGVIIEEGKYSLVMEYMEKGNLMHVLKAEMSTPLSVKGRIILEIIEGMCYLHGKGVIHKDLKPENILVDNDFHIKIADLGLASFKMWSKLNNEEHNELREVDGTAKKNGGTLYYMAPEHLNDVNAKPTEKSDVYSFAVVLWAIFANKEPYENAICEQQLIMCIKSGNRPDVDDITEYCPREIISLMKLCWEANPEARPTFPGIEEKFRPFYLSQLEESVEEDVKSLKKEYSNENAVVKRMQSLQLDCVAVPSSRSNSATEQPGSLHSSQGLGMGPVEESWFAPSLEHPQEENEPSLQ

This test has as its target RIPK1 recombination protein (Homo sapiens (Human), UniProt Q13546). Briefly: RIPK1 kinase activity assay (ADP-Glo). To be noted: RIPK1 kinase activity, ADP-Glo, 10 μM ATP. It counts as biochemical. The method, then:
RIPK1 recombination protein: synthesized by Shanghai Medicilon Inc. under the commission by Hutchison MediPharma Limited (50 g of cell pellet was resuspended in 250 mL of lysis buffer (50 mM Tris, pH 7.5, 250 mM NaCl, 1 mM DTT, protease inhibitor 1:50), the cells were ultrasonically lysed using a sonicator (the power set to 4) on ice for 3×30 minutes; then centrifugation was carried out at 4° C., at 15,000 g for 30 minutes to clarify the suspension, the soluble pellet was resuspended into 10 mL of glutathione agarose, and incubated at 4° C. for 2 hours; then the beads were loaded into the column and washed with lysis buffer (no protease inhibitors) to baseline, and eluted with 20 mM of reduced glutathione (50 mM Tris, pH 8). The fractions identified by SDS-PAGE as containing the protein of interest were collected (10 mL of total volume), concentrated to about 5 mL and loaded into 300 mL superdex75 column (GE Healthcare) equilibrated with buffer (50 mM Tris, pH 7.5, 150 mM NaCl, 1 mM DTT, 10% glycerol, pH 7.5). RIP1 protein was eluted as a dimer from the superdex75 column. The protein concentration was determined by the Bradford assay using BSA as the standard. The yield was 12.5 mg at 0.63 mg/mL. The protein was aliquoted and frozen at −80° C. for later use.
ADP-Glo Kinase kit can be used to measure ADP level in kinase activity assay so as to distinguish the inhibitory effects of different compounds on RIPK1 kinase activity. The ADP-Glo assay was usually divided into three steps. Firstly, the kinase converted ATP to ADP and phosphorylated the substrate at the same time; secondly, ATP digestion reagent was added to degrade all ATP in the reaction system; finally, a detection reagent was added to reduce ADP to ATP, and energy from ATP was transferred to […] which thus emitting a chemical luminescence that can be detected. Assay procedure can refer to manufacture's technical manual.
(2) Reagent Preparation: • 1.33× kinase buffer: 5× kinase buffer stock (250 mM of NaCl, 150 mM of MgCl2, 2.5 mg/ml BSA (bovine serum albumin), 0.1% CHAPS (3-[(3-cholamidopropyl)-dimethyl-ammonio]-1-propane sulfonate), and 5 mM of dithiothreitol) was diluted with water to 1.33× kinase buffer; • RIPK1 enzyme solution: the kinase was dissolved in 1.33× kinase buffer to make 40 nM as the final working concentration; • ATP solution: 10 mM ATP stock solution in water was dissolved in 1.33× kinase buffer to make 10 μM as the final working concentration; • 4× compound preparation: the compound was diluted in a 3-fold gradient, and finally 4% DMSO aqueous solution containing different concentrations of the compound was obtained. The final concentrations of the test compound were 10, 3.33, 1.11, 0.37, 0.12, 0.04, 0.014, and 0.005 μM.
The assay set up two control groups, one was 100% inhibition group (no enzyme treatment), another was 0% inhibition group (no inhibitor treatment), each control group contained 8 replicate wells. 2.5 μl of serially diluted compound was added to each well of a 384-well plate, with double replicate wells, and 4% DMSO solution was added to control wells. Then 5 μl of RIPK1 enzyme solution was added to each well except 100% inhibition control, 5 ul of buffer was added to 100% inhibition control, after that, 2.5 μl of ATP solution was added to all wells, the plate was vibrated at 1000 rpm for 30 seconds to perform transient centrifuge; finally the 384-well assay plate was put in the shaking incubator, and incubated at room temperature for 3 hours. After the enzymatic reaction was completed, 5 μl of ATP depletion reagent was added to each well, the mixture was centrifuged transiently, then the 384-well assay plate was put in the shaking incubator, and incubated at room temperature for 1 hour. 5 μl of ADP detection reagent was added to each well, and the mixture was centrifuged transiently, and incubated at room temperature for 0.5 hour. […]
As a reminder, the pIC50 is the IC50 on a negative log10 scale, so that one unit is a factor of ten. For the compound `CC(C)n1cncc(-c2ccc(C3(NC(=O)c4ncc5cnn(C(C)C6CC6)c5n4)CC3)cc2)c1=O` (racemic) [Compound 59, 1-(1-cyclopropylethyl)-N-(1-(4-(1-i-propyl-6-oxo-1,6-dihydropyrimidin-5-yl)phenyl)cyclopropyl)-1H-pyrazolo[3,4-d]pyrimidine-6-carboxamide], the pIC50 is 7.59.
With `CC(C)n1ncc2cnc(C(=O)NC3(c4ccc(-c5cncn([C@H](C)C(F)(F)F)c5=O)cc4F)CC3)nc21` (stereo in doubt) [Compound 46], the negative-log IC50 (pIC50) was 7.46.
As for `CC(C)n1ncc2cnc(C(=O)NC3(c4ccc(-c5cncn([C@@H](C)C(F)(F)F)c5=O)cc4F)CC3)nc21` (stereo in doubt) [Compound 47], the figure is 7.54; as for `CC(C)n1ncc2cnc(C(=O)NC3(c4ccc(-c5cncn(C6CCOC6)c5=O)cc4)CC3)nc21` (stereo in doubt) [Compound 80, (R)-1-i-propyl-N-(1-(4-(6-oxo-1-(tetrahydrofuran-3-yl)-1,6-dihydropyrimidin-5-yl)phenyl)cyclopropyl)-1H-pyrazolo[3,4-d]pyrimidine-6-carboxamide], 7.38; as for `CC(C)n1ncc2cnc(C(=O)NC3(c4ccc(-c5cncn(C6CCOC6)c5=O)cc4)CC3)nc21` (stereo in doubt) [Compound 81, (S)-1-i-propyl-N-(1-(4-(6-oxo-1-(tetrahydrofuran-3-yl)-1,6-dihydropyrimidin-5-yl)phenyl)cyclopropyl)-1H-pyrazolo[3,4-d]pyrimidine-6-carboxamide], 7.41.
As to `CC(C#N)n1cncc(-c2ccc(C3(NC(=O)c4ncc5cnn(C(C)C)c5n4)CC3)cc2)c1=O` (stereo in doubt) [Compound 82, (R)—N-(1-(4-(1-(1-cyanoethyl)-6-oxo-1,6-dihydropyrimidin-5-yl)phenyl)cyclopropyl)-1-i-propyl-1H-pyrazolo[3,4-d]pyrimidine-6-carboxamide], the pIC50 was 7.29.
In the case of `CC(C#N)n1cncc(-c2ccc(C3(NC(=O)c4ncc5cnn(C(C)C)c5n4)CC3)cc2)c1=O` (stereo in doubt) [Compound 83, (S)—N-(1-(4-(1-(1-cyanoethyl)-6-oxo-1,6-dihydropyrimidin-5-yl)phenyl)cyclopropyl)-1-i-propyl-1H-pyrazolo[3,4-d]pyrimidine-6-carboxamide], the pIC50 is 7.33.
Turning to `CC(C)n1ncc2cnc(C(=O)NC3(c4ccc(-c5cncn(C)c5=O)cc4)CC3)nc21` [Compound 1, 1-isopropyl-N-(1-(4-(1-methyl-6-oxo-1,6-dihydropyrimidin-5-yl)phenyl)cyclopropyl)-1H-pyrazolo[3,4-d]pyrimidine-6-carboxamide], the pIC50 is 7.55.
As for `CC(C)n1ncc2cnc(C(=O)NC3(c4ccc(-c5cncn(C)c5=O)cn4)CC3)nc21` [Compound 2], the figure is 7.20.
With `Cn1cncc(-c2ccc(C3(NC(=O)c4nnc(Cc5ccccc5)[nH]4)CC3)cc2)c1=O` [Compound 3], the pIC50 is 7.46.
As for `Cn1cncc(-c2ccc(C3(NC(=O)c4ncc5cnn(-c6ccccc6)c5n4)CC3)cc2)c1=O` [Compound 4], the figure is 7.59; as for `Cn1cncc(-c2ccc(C3(NC(=O)c4cc(Cc5ccccc5)on4)CC3)cc2)c1=O` [Compound 5], 7.24; as for `CC(C)Cc1nc(C(=O)NC2(c3ccc(-c4cncn(C)c4=O)cc3)CC2)ncc1Cl` [Compound 6], 7.25.
As for `Cn1cncc(-c2ccc(C3(NC(=O)c4ncn(Cc5ccccc5)n4)CC3)cc2)c1=O` [Compound 8], the figure is 7.66; as for `Cn1cncc(-c2ccc(C3(NC(=O)c4noc(Cc5ccccc5)n4)CC3)cc2)c1=O` [Compound 9], 7.43; as for `Cn1cncc(-c2ccc(C3(NC(=O)c4ncc(Cc5ccccc5)o4)CC3)cc2)c1=O` [Compound 10], 7.59.
Consider `Cn1cncc(-c2ccc(C3(NC(=O)c4nnc(Cc5ccccc5)o4)CC3)cc2)c1=O` [Compound 11], for which the negative logarithm of the IC50 (pIC50) was 7.42.
In the case of `CC(C)n1ncc2cnc(C(=O)NC3(c4ccc(-c5cncn(C6CC6)c5=O)cc4)CC3)nc21` [Compound 12], the negative-log IC50 (pIC50) is 8.05.
Turning to `CC(C)n1cncc(-c2ccc(C3(NC(=O)c4nnc(Cc5ccccc5)o4)CC3)cc2)c1=O` [Compound 13], the pIC50 was 7.66.
Consider `CC(C)n1cncc(-c2ccc(C3(NC(=O)c4nc5n(n4)[C@@H](c4ccccc4)CC5)CC3)cc2)c1=O` [Compound 15], for which the pIC50 is 7.52.
As for `CC(C)n1cncc(-c2ccc(C3(NC(=O)c4nc5n(n4)[C@H](c4ccccc4)CC5)CC3)cc2)c1=O` [Compound 16], the figure is 7.60; as for `CC(C)n1cncc(-c2ccc(C3(NC(=O)c4ncn(Cc5ccccc5)n4)CC3)cc2)c1=O` [Compound 17], 7.82.
On to `Cn1cncc(-c2ccc(C3(NC(=O)c4nnc(Cc5c(F)cccc5F)[nH]4)CC3)cc2)c1=O` [Compound 18], for which the pIC50 is 7.42.
`CC(C)n1cncc(-c2ccc(C3(NC(=O)c4ncc5cnn(-c6ccccc6)c5n4)CC3)cc2)c1=O` [Compound 19]: the pIC50 was 7.15.
As for `CC(C)Cc1nc(C(=O)NC2(c3ccc(-c4cncn(C(C)C)c4=O)cc3)CC2)ncc1Cl` [Compound 22], the figure is 7.26.
Consider `CC(C)n1ncc2cnc(C(=O)NC3(c4ccc(-c5cncn(C)c5=O)c(F)c4)CC3)nc21` [Compound 23, N-(1-(3-fluoro-4-(1-methyl-6-oxo-1,6-dihydropyrimidin-5-yl)phenyl)cyclopropyl)-1-isopropyl-1H-pyrazolo[3,4-d]pyrimidine-6-carboxamide], for which the pIC50 was 7.31.
As for `CC(C)n1ncc2cnc(C(=O)NC3(c4ccc(-c5cncn(C)c5=O)c(Cl)c4)CC3)nc21` [Compound 25], the pIC50 was 7.28.
Turning to `CC(C)n1ncc2cnc(C(=O)NC3(c4ccc(-c5cncn(C)c5=O)cc4F)CC3)nc21` [Compound 26], the pIC50 is 7.66.
As for `CC(C)n1ncc2cnc(C(=O)NC3(c4ccc(-c5cncn(C)c5=O)cc4)CC3)cc21` [Compound 28, 1-isopropyl-N-(1-(4-(1-methyl-6-oxo-1,6-dihydropyrimidin-5-yl)phenyl)cyclopropyl)-1H-pyrazolo[4,3-c]pyridine-6-carboxamide], the figure is 7.02; as for `CC(C)n1cncc(-c2ccc(C3(NC(=O)c4ncc5cnn(C(C)C)c5n4)CC3)cc2)c1=O` [Compound 29, 1-isopropyl-N-(1-(4-(1-isopropyl-6-oxo-1,6-dihydropyrimidin-5-yl)phenyl)cyclopropyl)-1H-pyrazolo[3,4-d]pyrimidine-6-carboxamide], 7.72.
On to `CC(C)n1ncc2cnc(C(=O)NC3(c4ccc(-c5cnc(N)n(C)c5=O)cc4)CC3)nc21` [Compound 30], for which the negative-log IC50 (pIC50) is 7.46.
`CC(C)n1cncc(-c2ccc(C3(NC(=O)c4ncc5cnn(C(C)C)c5n4)CC3)cc2Cl)c1=O` [Compound 33]: the pIC50 was 7.23.
Turning to `CC(C)n1cncc(-c2ccc(C3(NC(=O)c4ncc5cnn(C(C)C)c5n4)CC3)c(F)c2)c1=O` [Compound 34], the pIC50 is 7.19.
In the case of `CC(C)n1cncc(-c2ccc(C3(NC(=O)c4ncc5cnn(C(C)C)c5n4)CC3)cc2F)c1=O` [Compound 35], the pIC50 was 7.33.
As for `CC(C)n1ncc2cnc(C(=O)NC3(c4ccc(-c5cncn(CC6CC6)c5=O)cc4)CC3)nc21` [Compound 36], the pIC50 was 7.38.
As for `CCn1cncc(-c2ccc(C3(NC(=O)c4ncc5cnn(C(C)C)c5n4)CC3)cc2)c1=O` [Compound 37], the pIC50 was 7.39.
On to `CC(C)n1ncc2cnc(C(=O)NC3(c4ccc(-c5cncn(CC(F)(F)F)c5=O)cc4)CC3)nc21` [Compound 38], for which the pIC50 is 7.32.

Source of the values: US20240002388A1, “PYRIMIDINONE COMPOUNDS AND USES THEREOF” (HUTCHISON MEDIPHARMA LIMITED, priority 2020, published 2024).
